{"source": "patent US20230372357A1", "about": "“STABLE PHARMACEUTICAL COMPOSITION” (SANTEN PHARMACEUTICAL CO., LTD., priority 2020, published 2023)", "key": {"[1]": {"details": "intracameral injection; cited from earlier work"}, "[2]": {"assay": "Finding at development stage: compound dissolved as aqueous composition", "type": "physicochemical"}}}
{"smiles": "CCN(CC)CC1CCCCN1CC(=O)N1c2ccccc2C(=O)Nc2cccnc21", "note": "(stereo not drawn) [AFDX0116, 11-[2-[2-[(diethylamino)methyl]-1-piperidinyl]acetyl]-5,11-dihydro-6H-pyrido[2,3-b][1,4]benzodiazepin-6-one]", "values": [{"measurement": "intraocular pressure", "setting": "[1]", "value": "decreased"}]}
{"smiles": "CCN(CC)C[C@H]1CCCCN1CC(=O)N1c2ccccc2C(=O)Nc2cccnc21", "note": "[AFDX0250, (+)-11-[2-[2-[(diethylamino)methyl]-1-piperidinyl]acetyl]-5,11-dihydro-6H-pyrido[2,3-b][1,4]benzodiazepin-6-one]", "values": [{"measurement": "hydrolysis of the compound in an aqueous composition", "setting": "[2]; dissolved and prepared in the form of an aqueous composition", "value": "susceptible to hydrolysis"}, {"measurement": "degradation of the compound under light irradiation", "setting": "[2]; under the light irradiation", "value": "easily degraded under the light irradiation"}]}
